MIC data for one molecule are collected here from ChEMBL document CHEMBL5532634, “Oxazolidinone: A promising scaffold for the development of antibacterial drugs” (Eur J Med Chem, 2023).

This assay concerns Mycobacterium tuberculosis. As to the kind of experiment: Antimycobacterial activity against multi-drug resistant Mycobacterium tuberculosis assessed as reduction in bacterial growth. Type of assay: functional.

Converted amounts (≈) assume the structure as drawn.

For orientation: MIC means the smallest concentration in the dilution series that meets the test's criterion for growth inhibition.

With `CC(=O)NC[C@H]1CN(c2ccc(N3CCSCC3)c(F)c2)C(=O)O1` [SUTEZOLID], the MIC came to 0.2 µg/mL (≈ 0.566 µM).
